Test results: patent US9505749B2, “Quinazolinone compounds and derivatives thereof” (AMGEN INC., priority 2012, dated 2016)

Assays:
[1] = target: 6×HIS-tankyrase1 (1091-1325) (Homo sapiens (Human), UniProt O95271); test: Tankyrase 1 biochemical assay (AlphaLisa, PARsylation); details: 400 nM NAD, 60 minutes at RT; read-out: TNKS1 IC50
[2] = target: 6×HIS-tankyrase 2 (946-1162) (Homo sapiens (Human), UniProt Q9H2K2); test: Tankyrase 2 biochemical assay (AlphaLisa, PARsylation); details: 250 nM NAD; read-out: TNKS2 IC50
6×HIS-tankyrase 2 (946-1162), sequence (Q9H2K2 946-1162): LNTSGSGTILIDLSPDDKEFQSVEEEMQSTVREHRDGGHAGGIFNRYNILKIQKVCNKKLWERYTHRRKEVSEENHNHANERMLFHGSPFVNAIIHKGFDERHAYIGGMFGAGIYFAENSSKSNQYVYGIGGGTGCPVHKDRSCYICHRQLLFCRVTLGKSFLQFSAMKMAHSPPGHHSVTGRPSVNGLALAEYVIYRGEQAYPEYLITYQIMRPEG

[3] = system: Axin2 accumulation in SW480 cells; test: Axin2 384 immunofluorescence assay; type: cell-based; details: Homo sapiens; SW480 cells, 24 hours; read-out: Axin2 384 IF EC50
PARP1 = PARP1 (Homo sapiens (Human), UniProt P09874); test: PARP1 biochemical assay (Trevigen kit)
PARP1, sequence (P09874 whole entry): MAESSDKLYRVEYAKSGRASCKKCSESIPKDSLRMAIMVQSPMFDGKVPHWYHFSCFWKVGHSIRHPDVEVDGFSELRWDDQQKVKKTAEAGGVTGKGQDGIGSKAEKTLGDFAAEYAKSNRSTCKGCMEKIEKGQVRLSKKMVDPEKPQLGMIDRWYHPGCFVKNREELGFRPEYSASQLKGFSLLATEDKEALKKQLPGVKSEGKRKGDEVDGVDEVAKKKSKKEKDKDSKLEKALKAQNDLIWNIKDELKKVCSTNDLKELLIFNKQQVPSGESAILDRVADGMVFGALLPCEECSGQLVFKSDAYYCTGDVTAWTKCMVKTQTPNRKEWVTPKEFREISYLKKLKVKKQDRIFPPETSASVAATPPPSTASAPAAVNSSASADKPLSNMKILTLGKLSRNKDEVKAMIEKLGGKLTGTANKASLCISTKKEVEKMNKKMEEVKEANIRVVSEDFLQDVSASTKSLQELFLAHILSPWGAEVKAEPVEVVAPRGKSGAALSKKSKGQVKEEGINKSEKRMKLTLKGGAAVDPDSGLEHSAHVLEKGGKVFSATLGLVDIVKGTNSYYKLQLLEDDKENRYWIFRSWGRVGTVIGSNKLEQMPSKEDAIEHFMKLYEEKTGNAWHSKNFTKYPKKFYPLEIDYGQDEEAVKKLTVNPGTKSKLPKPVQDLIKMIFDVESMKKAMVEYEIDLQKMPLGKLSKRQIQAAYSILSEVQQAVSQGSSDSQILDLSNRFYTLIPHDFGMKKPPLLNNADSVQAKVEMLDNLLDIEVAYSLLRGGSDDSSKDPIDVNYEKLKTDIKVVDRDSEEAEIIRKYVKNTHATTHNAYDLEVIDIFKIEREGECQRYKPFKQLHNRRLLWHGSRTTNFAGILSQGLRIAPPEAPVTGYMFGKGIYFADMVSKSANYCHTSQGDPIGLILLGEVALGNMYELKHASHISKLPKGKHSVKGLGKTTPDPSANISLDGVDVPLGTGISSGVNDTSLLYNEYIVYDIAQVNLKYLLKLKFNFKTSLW
Text: PARP1 biochemical assay was purchased as a kit from Trevigen (cat.#4676-096-K) and used per manufacturers recommendations.

PARP2 = PARP2 (Homo sapiens (Human), UniProt Q9UGN5); test: PARP2 biochemical assay (BPS kit)
PARP2, sequence (Q9UGN5 whole entry): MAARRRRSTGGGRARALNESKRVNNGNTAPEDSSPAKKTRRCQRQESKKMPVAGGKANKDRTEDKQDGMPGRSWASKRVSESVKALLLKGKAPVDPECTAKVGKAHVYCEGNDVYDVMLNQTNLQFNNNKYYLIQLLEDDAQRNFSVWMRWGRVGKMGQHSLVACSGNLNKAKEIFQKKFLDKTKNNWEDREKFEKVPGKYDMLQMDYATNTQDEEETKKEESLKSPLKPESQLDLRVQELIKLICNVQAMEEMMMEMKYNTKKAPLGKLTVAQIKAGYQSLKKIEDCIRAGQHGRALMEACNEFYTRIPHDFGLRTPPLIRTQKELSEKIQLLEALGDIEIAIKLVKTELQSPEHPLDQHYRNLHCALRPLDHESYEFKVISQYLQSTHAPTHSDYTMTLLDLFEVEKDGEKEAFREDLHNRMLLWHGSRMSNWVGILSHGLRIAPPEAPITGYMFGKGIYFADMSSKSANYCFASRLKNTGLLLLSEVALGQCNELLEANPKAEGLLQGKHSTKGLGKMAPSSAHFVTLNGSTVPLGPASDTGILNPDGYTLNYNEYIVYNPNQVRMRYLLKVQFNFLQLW

[4] = system: total β-catenin in SW480 colorectal cells; test: Total β-catenin MSD 96-well plate assay for SW480 cells; details: Homo sapiens, SW480, read-out: SW480-Total beta-catenin (TBC) IC50 IP

6×HIS-tankyrase1 (1091-1325), sequence (O95271 1091-1325): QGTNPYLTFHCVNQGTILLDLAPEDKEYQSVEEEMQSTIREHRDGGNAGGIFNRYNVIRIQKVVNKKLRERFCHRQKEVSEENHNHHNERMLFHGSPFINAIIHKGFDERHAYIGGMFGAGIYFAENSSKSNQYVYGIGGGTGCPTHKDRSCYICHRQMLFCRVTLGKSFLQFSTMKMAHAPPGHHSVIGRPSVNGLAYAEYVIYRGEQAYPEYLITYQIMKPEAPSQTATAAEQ

O=C(CCCc1nc2ccccc2c(=O)[nH]1)N1CCC(c2nnc(-c3cccc(F)c3)o2)CC1 [Example 5, 2-(4-(4-(5-(3-fluorophenyl)-1,3,4-oxadiazol-2-yl)-1-piperidinyl)-4-oxobutyl)-4(3H)-quinazolinone]
IC50 [1]: 31.8 nM
IC50 [2]: 4.84 nM
EC50 [3]: 771 nM
IC50 (PARP1): 3.76 µM
IC50 (PARP2): 2350 nM
IC50 [4]: 92.2 nM

O=C(CCCc1nc2ccccc2c(=O)[nH]1)N1CCC(c2nnc(-c3ccc(F)cc3)o2)CC1 [Example 6, 2-(4-(4-(5-(4-fluorophenyl)-1,3,4-oxadiazol-2-yl)piperidin-1-yl)-4-oxobutyl)quinazolin-4(3H)-one]
IC50 [1]: 18.8 nM
IC50 [2]: 2.59 nM
EC50 [3]: 247 nM
IC50 (PARP1): 5.41 µM
IC50 (PARP2): 783 nM
IC50 [4]: 63.9 nM

Cc1ccc2[nH]c(=O)n(C3CCN(C(=O)CCCc4nc5ccccc5c(=O)[nH]4)CC3)c2c1 [Example 7, 2-(4-(4-(6-methyl-2-oxo-2,3-dihydro-1H-benzimidazol-1-yl)-1-piperidinyl)-4-oxobutyl)-4(3H)-quinazolinone]
IC50 [1]: 6.94 nM
IC50 [2]: 3.38 nM
EC50 [3]: 651 nM
IC50 (PARP1): 1.93 µM
IC50 (PARP2): 192 nM
IC50 [4]: 626 nM

O=C(CCCc1nc2ccccc2c(=O)[nH]1)N1CCC(c2nnc(-c3ccccc3)s2)CC1 [Example 9, 2-(4-oxo-4-(4-(5-phenyl-1,3,4-thiadiazol-2-yl)-1-piperidinyl)butyl)-4(3H)-quinazolinone]
IC50 [1]: 168 nM
IC50 [2]: 18.5 nM
EC50 [3]: 1230 nM
IC50 (PARP1): 2.86 µM
IC50 (PARP2): 471 nM
IC50 [4]: 56.6 nM

Cc1ccc2c(c1)[nH]c(=O)n2C1CCN(C(=O)CCCc2nc3ccccc3c(=O)[nH]2)CC1 [Example 11, 2-(4-(4-(5-methyl-2-oxo-2,3-dihydro-1H-benzimidazol-1-yl)-1-piperidinyl)-4-oxobutyl)-4(3H)-quinazolinone]
IC50 [1]: 2.76 nM
IC50 [2]: 1.6 nM
EC50 [3]: 247 nM
IC50 (PARP1): 0.867 µM
IC50 (PARP2): 103 nM
IC50 [4]: 157 nM

O=C(CCCc1nc2ccccc2c(=O)[nH]1)N1CCC(c2nnc(-c3ccccn3)o2)CC1 [Example 12, 2-(4-oxo-4-(4-(5-(2-pyridinyl)-1,3,4-oxadiazol-2-yl)-1-piperidinyl)butyl)-4(3H)-quinazolinone]
IC50 [1]: 89.7 nM
IC50 [2]: 15.9 nM
EC50 [3]: 1220 nM
IC50 (PARP1): 6.29 µM
IC50 (PARP2): 1920 nM
IC50 [4]: 1840 nM

O=C(CCCc1nc2ccccc2c(=O)[nH]1)N1CCC(c2nnc(-c3cccnc3)o2)CC1 [Example 13, 2-(4-oxo-4-(4-(5-(3-pyridinyl)-1,3,4-oxadiazol-2-yl)-1-piperidinyl)butyl)-4(3H)-quinazolinone]
IC50 [1]: 42.8 nM
IC50 [2]: 6.54 nM
EC50 [3]: 461 nM
IC50 (PARP1): 7.09 µM
IC50 (PARP2): 1240 nM
IC50 [4]: 358 nM

O=C(CCCc1nc2ccccc2c(=O)[nH]1)N1CCC(c2nnc(-c3cnccn3)o2)CC1 [Example 14, 2-(4-oxo-4-(4-(5-(2-pyrazinyl)-1,3,4-oxadiazol-2-yl)-1-piperidinyl)butyl)-4(3H)-quinazolinone]
IC50 [1]: 79.7 nM
IC50 [2]: 15.5 nM
EC50 [3]: 1250 nM
IC50 (PARP1): 8.54 µM
IC50 (PARP2): 2180 nM
IC50 [4]: 837 nM

COc1ccc(-c2nnc(C3CCN(C(=O)CCCc4nc5ccccc5c(=O)[nH]4)CC3)o2)cc1 [Example 15, 2-(4-(4-(5-(4-methoxyphenyl)-1,3,4-oxadiazol-2-yl)-1-piperidinyl)-4-oxobutyl)-4(3H)-quinazolinone]
IC50 [1]: 15 nM
IC50 [2]: 3.35 nM
EC50 [3]: 126 nM
IC50 (PARP1): 3.17 µM
IC50 (PARP2): 1200 nM
IC50 [4]: 86.9 nM

O=C(CCCc1nc2ccccc2c(=O)[nH]1)N1CCC(c2nnc(-c3ccccc3Cl)o2)CC1 [Example 16, 2-(4-(4-(5-(2-chlorophenyl)-1,3,4-oxadiazol-2-yl)-1-piperidinyl)-4-oxobutyl)-4(3H)-quinazolinone]
IC50 [1]: 107 nM
IC50 [2]: 17.9 nM
EC50 [3]: 1900 nM
IC50 (PARP1): 5.07 µM
IC50 (PARP2): 560 nM
IC50 [4]: 1190 nM
